Data set [1] has as its system Bipolaris oryzae. Kind of data set: Antifungal activity against Bipolaris oryzae infected in fifth-leaf stage of rice plant assessed as control of brown spot disease at 150 ug/ml treated as foliar application after 6 days. The data set is classed as functional.
Data set [2] has as its system Fusarium fujikuroi. Kind of data set: Antifungal activity against Fusarium fujikuroi infected in rice plant assessed as control of bakanae disease at 18 ug/ml treated as seed treatment after 2 weeks. The format is functional.
Data set [3] concerns Bipolaris oryzae. Kind of data set: Antifungal activity against Bipolaris oryzae after 3 days. The format is functional, organism-based.
In data set [4] the test system is Bipolaris oryzae. In words: Antifungal activity against Bipolaris oryzae infected in fifth-leaf stage of rice plant assessed as control of brown spot disease at 38 ug/ml treated as foliar application after 6 days. The data set is classed as functional.
Data set [5] deals with Bipolaris oryzae. Kind of data set: Antifungal activity against Bipolaris oryzae infected in fifth-leaf stage of rice plant assessed as control of brown spot disease at 9 ug/ml treated as foliar application after 6 days. The data set is classed as functional.
The test system of data set [6] is Fusarium fujikuroi. Kind of data set: Antifungal activity against Fusarium fujikuroi infected in rice plant assessed as control of bakanae disease at 75 ug/ml treated as seed treatment after 2 weeks. The format is functional.
Data set [7] has as its system Fusarium fujikuroi. Kind of data set: Antifungal activity against Fusarium fujikuroi after 3 days. The data set is classed as functional, organism-based.
The next data set concerns Pyricularia oryzae. In words: Antifungal activity against Magnaporthe oryzae after 3 days. The data set is classed as functional, organism-based.
The test system of data set [8] is Fusarium fujikuroi. In words: Antifungal activity against Fusarium fujikuroi infected in rice plant assessed as control of bakanae disease at 300 ug/ml treated as seed treatment after 2 weeks. The data set is classed as functional.
In a further data set the test system is Oryza sativa. In words: Growth inhibition of Oryza sativa (rice) assessed as growth rate by measuring first sheath length at 250 ug/ml treated as seed treatment 24 hr before emergence measured after 10 days relative to control. The format is organism-based. Also noted: scale not given: the % may be the effect or the level left. To be noted: in vivo, 240 h.

[9] abbreviates: Bipolaris oryzae, 72 h, read-out: EC50.
[10] abbreviates: Fusarium fujikuroi, 72 h, read-out: EC50.
[11] abbreviates: Pyricularia oryzae, 72 h, read-out: EC50.

Each structure is given as a SMILES string. ≈ marks a conversion by molar mass, not a printed value.

With `CC(C)[C@@H]1CC[C@@H](Cc2ccc(Cl)cc2)[C@@]1(O)Cn1cncn1` (racemic), the Activity in the data set on Bipolaris oryzae [1] is 92%; in the data set with Fusarium fujikuroi [2] it was 0%; in the data set on Bipolaris oryzae [4], 49%; in the data set with Bipolaris oryzae [5] it was 25%; with Fusarium fujikuroi [6], 59.1%; with Fusarium fujikuroi [8] it was 95.2%. Besides, the Activity with Oryza sativa was 91.7%. In addition, the EC50 was 1 mg/L (≈ 3 µM) in the data set with Bipolaris oryzae [3] (setting [9]), 0.9 mg/L (≈ 2.7 µM) with Fusarium fujikuroi [7] (setting [10]) and 0.5 mg/L (≈ 1.5 µM) in the data set on Pyricularia oryzae (setting [11]).

As for `CC(C)[C@H]1CC[C@H](Cc2ccc(Cl)cc2)[C@@]1(O)Cn1cncn1` (racemic), the Activity in the data set with Bipolaris oryzae [1] is listed as 100%; with Fusarium fujikuroi [2], 52.1%; with Bipolaris oryzae [4] it was 98%; in the data set with Bipolaris oryzae [5] it was 71%; with Fusarium fujikuroi [6], 97.5%; in the data set with Fusarium fujikuroi [8], 99.6%. Also, in the data set on Oryza sativa, the Activity is recorded as 90.7%. Besides, the EC50 amounted to 0.4 mg/L (≈ 1.2 µM) in the data set on Bipolaris oryzae [3], 0.06 mg/L (≈ 0.18 µM) in the data set with Fusarium fujikuroi [7] and 0.03 mg/L (≈ 0.0899 µM) with Pyricularia oryzae.

`CC(C)[C@@H]1CC[C@H](Cc2ccc(Cl)cc2)[C@@]1(O)Cn1cncn1` (racemic): the Activity with Bipolaris oryzae [1] was 100%; in the data set on Fusarium fujikuroi [2], 61.2%; in the data set with Bipolaris oryzae [4] it was 84%; with Bipolaris oryzae [5], 86%; in the data set with Fusarium fujikuroi [6] it was 96.5%; with Fusarium fujikuroi [8] it was 98.7%. Further, the Activity in the data set with Oryza sativa was found to be 98.3%. For the same compound, the results for the EC50 with Bipolaris oryzae [3], in the data set with Fusarium fujikuroi [7] and with Pyricularia oryzae were 0.4 mg/L (≈ 1.2 µM), 0.05 mg/L (≈ 0.15 µM) and 0.08 mg/L (≈ 0.24 µM), respectively.

With `CC(C)[C@H]1CC[C@@H](Cc2ccc(Cl)cc2)[C@@]1(O)Cn1cncn1` (racemic), the Activity with Bipolaris oryzae [1] is 100%; in the data set with Fusarium fujikuroi [2], 9.7%; in the data set on Bipolaris oryzae [4], 74%; in the data set with Bipolaris oryzae [5] it was 53%; with Fusarium fujikuroi [6] it was 76.8%; with Fusarium fujikuroi [8], 97.5%. In addition, in the data set on Oryza sativa, the Activity was determined as 82.5%. Besides, the figures for the EC50 in the data set with Bipolaris oryzae [3] (setting [9]), in the data set with Fusarium fujikuroi [7] (setting [10]) and with Pyricularia oryzae (setting [11]) were 0.5 mg/L (≈ 1.5 µM), 0.09 mg/L (≈ 0.27 µM) and 0.04 mg/L (≈ 0.12 µM), respectively.

Regarding `CC(C)[C@H]1CC[C@H](Cc2ccc(Cl)cc2)[C@@]1(O)Cn1cncn1`, the concentration for a half-maximal effect (EC50) in the data set with Bipolaris oryzae [3] (setting [9]) was found to be 0.2 mg/L (≈ 0.599 µM); in the data set with Fusarium fujikuroi [7] (setting [10]) it was 0.03 mg/L (≈ 0.0899 µM); with Pyricularia oryzae, 0.01 mg/L (≈ 0.03 µM).

On to `CC(C)[C@@H]1CC[C@H](Cc2ccc(Cl)cc2)[C@@]1(O)Cn1cncn1`, for which the results for the concentration for a half-maximal effect (EC50) with Bipolaris oryzae [3] (setting [9]), with Fusarium fujikuroi [7] (setting [10]) and with Pyricularia oryzae (setting [11]) were 0.2 mg/L (≈ 0.599 µM), 0.03 mg/L (≈ 0.0899 µM) and 0.04 mg/L (≈ 0.12 µM), respectively.

With `CC(C)[C@H]1CC[C@@H](Cc2ccc(Cl)cc2)[C@]1(O)Cn1cncn1`, the figures for the half-maximal effective concentration (EC50) in the data set with Bipolaris oryzae [3] (setting [9]), in the data set with Fusarium fujikuroi [7] (setting [10]) and with Pyricularia oryzae (setting [11]) were 6 mg/L (≈ 18 µM), 10 mg/L (≈ 30 µM) and 1 mg/L (≈ 3 µM), respectively.

As to `CC(C)[C@@H]1CC[C@@H](Cc2ccc(Cl)cc2)[C@]1(O)Cn1cncn1`, the EC50 in the data set with Bipolaris oryzae [3] (setting [9]) turned out to be 3 mg/L (≈ 8.99 µM); in the data set with Fusarium fujikuroi [7] (setting [10]), 6 mg/L (≈ 18 µM); in the data set on Pyricularia oryzae (setting [11]), 0.7 mg/L (≈ 2.1 µM).
